Laboratory results from ChEMBL document CHEMBL1151740, “Structurally constrained hybrid derivatives containing octahydrobenzo[g or f]quinoline moieties for dopamine D2 and D3 receptors: binding characterization at D2/D3 receptors and elucidation of a pharmacophore model” (J Med Chem, 2008).

Target: D(3) dopamine receptor (Rattus norvegicus, UniProt P19020)
Assay: Displacement of [3H]Spiperone from rat dopamine D3 receptor expressed in HEK293 cells
Assay type: cell-based

D(3) dopamine receptor, sequence (P19020 whole entry): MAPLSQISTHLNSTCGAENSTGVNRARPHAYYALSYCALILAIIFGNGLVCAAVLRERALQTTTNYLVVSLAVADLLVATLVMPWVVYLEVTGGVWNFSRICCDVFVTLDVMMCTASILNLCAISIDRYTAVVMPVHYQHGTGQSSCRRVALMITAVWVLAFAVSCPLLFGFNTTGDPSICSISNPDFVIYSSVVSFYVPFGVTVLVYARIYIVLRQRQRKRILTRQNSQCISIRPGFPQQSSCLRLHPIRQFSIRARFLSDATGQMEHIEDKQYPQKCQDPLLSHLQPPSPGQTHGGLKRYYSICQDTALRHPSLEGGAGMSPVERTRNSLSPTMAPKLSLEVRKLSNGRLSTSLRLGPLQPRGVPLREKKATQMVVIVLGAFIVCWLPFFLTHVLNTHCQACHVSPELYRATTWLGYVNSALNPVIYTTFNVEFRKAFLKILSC

Row | Compound | Ki [nM]
1 | Oc1ccc2c(c1)C[C@H]1[C@@H](CCCN1CCN1CCN(c3cccc(Cl)c3Cl)CC1)C2 (racemic) | 256
2 | CCCN(CCN1CCN(c2ccc(-c3ccccc3)cc2)CC1)[C@H]1CCc2nc(N)sc2C1 | 0.925
3 | CCCN1CCC[C@H]2c3cccc(O)c3CC[C@@H]21 (relative stereo) | 96
4 | Oc1cccc2c1C[C@@H]1CCCN(CCN3CCN(c4cccc(Cl)c4Cl)CC3)[C@H]1C2 (racemic) | 168
5 | Oc1cccc2c1CC[C@H]1[C@H]2CCCN1CCN1CCN(c2ccccc2)CC1 | 4.95
6 | CCCN1CCC[C@@H]2Cc3c(O)cccc3C[C@H]21 (racemic) | 395
7 | Oc1cccc2c1CC[C@@H]1[C@@H]2CCCN1CCN1CCN(c2ccccc2)CC1 | 89.3

Next, values leading:

Row | Ki [nM] | Compound
8 | 473 | Oc1ccc2c(c1)C[C@H]1[C@@H](CCCN1CCN1CCN(c3ccccc3)CC1)C2 (racemic)
9 | 736 | Oc1cccc2c1C[C@@H]1CCCN(CCN3CCN(c4ccccc4)CC3)[C@H]1C2 (racemic)
10 | 44 | CCCN(CCN1CCN(c2ccccc2)CC1)[C@@H]1CCc2nc(N)sc2C1
11 | 4.15 | CCCN(CCN1CCN(c2ccccc2)CC1)[C@H]1CCc2nc(N)sc2C1
12 | 187 | Oc1ccc2c(c1)C[C@@H]1[C@@H](CCCN1CCN1CCN(c3cccc(Cl)c3Cl)CC1)C2 (racemic)
13 | 72.2 | Oc1ccc2c(c1)[C@@H]1CCCN(CCN3CCN(c4ccccc4)CC3)[C@H]1CC2
14 | 102 | Oc1ccc2c(c1)C[C@H]1[C@@H](CCCN1CCCCN1CCN(c3ccccc3)CC1)C2 (racemic)
15 | 38.6 | CCCN(CCN1CCN(c2ccccc2)CC1)[C@H]1CCc2ccc(O)cc2C1

Target: D(2) dopamine receptor (Rattus norvegicus, UniProt P61169)
Sequence (P61169 whole entry): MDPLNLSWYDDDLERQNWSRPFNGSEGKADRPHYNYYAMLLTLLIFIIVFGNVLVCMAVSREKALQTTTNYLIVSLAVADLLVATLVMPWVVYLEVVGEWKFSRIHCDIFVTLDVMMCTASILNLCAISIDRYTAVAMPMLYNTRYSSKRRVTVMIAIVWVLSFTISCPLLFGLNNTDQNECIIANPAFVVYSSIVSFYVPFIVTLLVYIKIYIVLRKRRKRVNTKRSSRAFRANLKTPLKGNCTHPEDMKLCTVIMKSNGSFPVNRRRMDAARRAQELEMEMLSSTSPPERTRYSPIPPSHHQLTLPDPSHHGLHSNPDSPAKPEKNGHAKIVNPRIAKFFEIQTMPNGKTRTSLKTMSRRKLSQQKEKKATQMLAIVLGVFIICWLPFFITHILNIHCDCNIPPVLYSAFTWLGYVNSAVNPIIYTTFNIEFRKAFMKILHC
Assay: Displacement of [3H]Spiperone from rat dopamine D2L receptor expressed in HEK293 cells
Assay type: cell-based

Row | Compound | Ki [nM]
16 | Oc1ccc2c(c1)C[C@H]1[C@@H](CCCN1CCN1CCN(c3cccc(Cl)c3Cl)CC1)C2 (racemic) | 338
17 | CCCN(CCN1CCN(c2ccc(-c3ccccc3)cc2)CC1)[C@H]1CCc2nc(N)sc2C1 | 234
18 | CCCN1CCC[C@H]2c3cccc(O)c3CC[C@@H]21 (relative stereo) | 347
19 | Oc1cccc2c1C[C@@H]1CCCN(CCN3CCN(c4cccc(Cl)c4Cl)CC3)[C@H]1C2 (racemic) | 136
20 | Oc1cccc2c1CC[C@H]1[C@H]2CCCN1CCN1CCN(c2ccccc2)CC1 | 23.6
21 | CCCN1CCC[C@@H]2Cc3c(O)cccc3C[C@H]21 (racemic) | 2780
22 | Oc1cccc2c1CC[C@@H]1[C@@H]2CCCN1CCN1CCN(c2ccccc2)CC1 | 835

Second part, the compound after the results:

Row | Ki [nM] | Compound
23 | 2520 | Oc1ccc2c(c1)C[C@H]1[C@@H](CCCN1CCN1CCN(c3ccccc3)CC1)C2 (racemic)
24 | 1710 | Oc1cccc2c1C[C@@H]1CCCN(CCN3CCN(c4ccccc4)CC3)[C@H]1C2 (racemic)
25 | 1980 | CCCN(CCN1CCN(c2ccccc2)CC1)[C@@H]1CCc2nc(N)sc2C1
26 | 243 | CCCN(CCN1CCN(c2ccccc2)CC1)[C@H]1CCc2nc(N)sc2C1
27 | 148 | Oc1ccc2c(c1)C[C@@H]1[C@@H](CCCN1CCN1CCN(c3cccc(Cl)c3Cl)CC1)C2 (racemic)
28 | 219 | Oc1ccc2c(c1)[C@@H]1CCCN(CCN3CCN(c4ccccc4)CC3)[C@H]1CC2
29 | 289 | Oc1ccc2c(c1)C[C@H]1[C@@H](CCCN1CCCCN1CCN(c3ccccc3)CC1)C2 (racemic)
30 | 809 | CCCN(CCN1CCN(c2ccccc2)CC1)[C@H]1CCc2ccc(O)cc2C1
